Test results from patent US20120214760A1, “TREATMENT OF URINARY TRACT INFECTIONS WITH ANTIBACTERIAL AMINOGLYCOSIDE COMPOUNDS” (Achaogen, Inc., priority 2009, published 2012).
≈ marks a conversion by molar mass, not a printed value. Like-named read-outs stand apart in the source and are kept apart here.

Experiments:
[1] = tested on: E. coli ATCC 25922 (AECO001); test: MIC, CLSI broth microdilution; type: cell-based; details: Escherichia coli
Experimental: (§1) Minimum inhibitory concentrations (MIC) were determined by reference Clinical and Laboratory Standards Institute (CLSI) broth microdilution methods per M7-A7 [2006]. Quality control ranges utilizing E. coli ATCC 25922, P. aeruginosa ATCC 27853 and S. aureus ATCC 29213, and interpretive criteria for comparator agents were as published in CLSI M100-S17 [2007]. Briefly, serial two-fold dilutions of the test compounds were prepared at 2× concentration in Mueller Hinton Broth. The compound dilutions were mixed in 96-well assay plates in a 1:1 ratio with bacterial inoculum. The inoculum was prepared by suspension of a colony from an agar plate that was prepared the previous day. Bacteria were suspended in sterile saline and added to each assay plate to obtain a final concentration of 5×10^5 CFU/mL. The plates were incubated at 35° C. for 20 hours in ambient air.

[2] = tested on: P. aeruginosa ATCC 27853 (APAE001); test: MIC, CLSI broth microdilution; type: cell-based; details: Pseudomonas aeruginosa
Experimental: as §1

[3] = ATCC25922, read-out: MIC AECO001, Table 1, AECO001 is ATCC25922
[4] = ATCC27853, read-out: MIC APAE001, Table 1, APAE001 is ATCC27853
[5] = ATCC25922, Table 2, read-out: MIC E. coli
[6] = Table 1, AECO001 is ATCC25922, read-out: MIC AECO001
[7] = ATCC27853, Table 2, read-out: MIC P. aeruginosa

Row | Compound | MIC [1, 3] [µg/mL] | MIC [2, 4] [µg/mL] | MIC [1, 5] [µg/mL] | MIC [1, 6] [µg/mL] | MIC [2, 7] [µg/mL]
1 | CN[C@@H]1[C@@H](O)[C@@H](O[C@@H]2[C@@H](O)[C@H](O[C@H]3OC(CNCCO)=CC[C@H]3N)[C@@H](N)C[C@H]2NC(=O)[C@H](O)CCN)OC[C@]1(C)O [Example 2, 6′-(2-Hydroxy-ethyl)-1-(4-amino-2(R)-hydroxy-butyryl)-sisomicin] | 1 to 16 (≈ 1.69 to 27 µM) | 1 to 16 (≈ 1.69 to 27 µM) | – | – | –
2 | CN[C@@H]1[C@@H](O)[C@@H](O[C@@H]2[C@@H](O)[C@H](O[C@H]3OC(CNCC(O)CO)=CC[C@H]3N)[C@@H](N)C[C@H]2NC(=O)[C@H](O)CCN)OC[C@]1(C)O (stereo partly drawn) [Example 3, 6′-(2-Hydroxy-propanol)-1-(4-amino-2(R)-hydroxy-butyryl)-sisomicin] | 1 to 16 (≈ 1.61 to 25.7 µM) | > 16 | – | – | –
3 | CN[C@@H]1[C@@H](O)[C@@H](O[C@@H]2[C@@H](O)[C@H](O[C@H]3OC(CNCC4CCNCC4)=CC[C@H]3N)[C@@H](N)C[C@H]2NC(=O)[C@H](O)CCN)OC[C@]1(C)O [Example 4, 6′-(Methyl-piperidin-4-yl)-1-(4-amino-2(R)-hydroxy-butyryl)-sisomicin] | 1 to 16 (≈ 1.55 to 24.8 µM) | 1 to 16 (≈ 1.55 to 24.8 µM) | – | – | –
4 | CN[C@@H]1[C@@H](O)[C@@H](O[C@@H]2[C@@H](O)[C@H](O[C@H]3OC(CNCC4CC4)=CC[C@H]3N)[C@@H](N)C[C@H]2NC(=O)[C@H](O)CCN)OC[C@]1(C)O [Example 5, 6′-(Methyl-cyclopropyl)-1-(4-amino-2(R)-hydroxy-butyryl)-sisomicin] | < 1 | 1 to 16 (≈ 1.66 to 26.5 µM) | – | – | –
5 | CN[C@@H]1[C@@H](O)[C@@H](O[C@@H]2[C@@H](O)[C@H](O[C@H]3OC(CNCCCN)=CC[C@H]3N)[C@@H](N)C[C@H]2NC(=O)[C@H](O)CCN)OC[C@]1(C)O [Example 6, 6′-(3-Amino-propyl)-1-(4-amino-2(R)-hydroxy-butyryl)-sisomicin] | 1 to 16 (≈ 1.65 to 26.4 µM) | 1 to 16 (≈ 1.65 to 26.4 µM) | – | – | –
6 | CN[C@@H]1[C@@H](O)[C@@H](O[C@@H]2[C@@H](O)[C@H](O[C@H]3OC(CNCC4CC4)=CC[C@H]3N)[C@@H](N)C[C@H]2NC(=O)[C@H](O)CN)OC[C@]1(C)O [Example 7, 6′-Methyl-cyclopropyl-1-(3-amino-2(R)-hydroxy-propionyl)-sisomicin] | < 1 | 1 to 16 (≈ 1.7 to 27.2 µM) | – | – | –
7 | CN[C@@H]1[C@@H](O)[C@@H](O[C@@H]2[C@@H](O)[C@H](O[C@H]3OC(CNCC4CCNCC4)=CC[C@H]3N)[C@@H](N)C[C@H]2NC(=O)[C@H](O)CN)OC[C@]1(C)O [Example 8, 6′-Methyl-piperidinyl-1-(3-amino-2(R)-hydroxy-propionyl)-sisomicin] | < 1 | 1 to 16 (≈ 1.58 to 25.3 µM) | – | – | –
8 | CN[C@@H]1[C@@H](O)[C@@H](O[C@@H]2[C@@H](O)[C@H](O[C@H]3OC(CNCCO)=CC[C@H]3N)[C@@H](N)C[C@H]2NC(=O)[C@H](O)CN)OC[C@]1(C)O [Example 9, 6′-(2-Hydroxy-ethyl)-1-(3-amino-2(R)-hydroxy-propionyl)-sisomicin] | 1 to 16 (≈ 1.73 to 27.6 µM) | > 16 | – | – | –
9 | CN[C@@H]1[C@@H](O)[C@@H](O[C@@H]2[C@@H](O)[C@H](O[C@H]3OC(CNCC(O)CO)=CC[C@H]3N)[C@@H](N)C[C@H]2NC(=O)[C@H](O)CN)OC[C@]1(C)O (stereo partly drawn) [Example 10, 6′-(2-Hydroxy-propanol)-1-(3-amino-2(R)-hydroxy-propionyl)-sisomicin] | 1 to 16 (≈ 1.64 to 26.3 µM) | 1 to 16 (≈ 1.64 to 26.3 µM) | – | – | –
10 | CN[C@@H]1[C@@H](O)[C@@H](O[C@@H]2[C@@H](O)[C@H](O[C@H]3OC(CNCCCN)=CC[C@H]3N)[C@@H](N)C[C@H]2NC(=O)[C@H](O)CN)OC[C@]1(C)O [Example 11, 6′-(3-Amino-propyl)-1-(3-amino-2(R)-hydroxy-propionyl)-sisomicin] | < 1 | 1 to 16 (≈ 1.69 to 27 µM) | – | – | –
11 | CN[C@@H]1[C@@H](O)[C@@H](O[C@@H]2[C@@H](O)[C@H](O[C@H]3OC(CNCC(O)CO)=CC[C@H]3N)[C@@H](N)C[C@H]2NC(=O)[C@@H](O)CN)OC[C@]1(C)O (stereo partly drawn) [Example 14, 6′-(2-Hydroxy-propanol)-1-(3-amino-2(S)-hydroxy-propionyl)-sisomicin] | 1 to 16 (≈ 1.64 to 26.3 µM) | 1 to 16 (≈ 1.64 to 26.3 µM) | – | – | –
12 | CN[C@@H]1[C@@H](O)[C@@H](O[C@@H]2[C@@H](O)[C@H](O[C@H]3OC(CNCC4CCNCC4)=CC[C@H]3N)[C@@H](N)C[C@H]2NC(=O)[C@@H](O)CN)OC[C@]1(C)O [Example 15, 6′-(Methyl-piperidin-4-yl)-1-(3-amino-2(S)-hydroxy-propionyl)-sisomicin] | – | – | < 1 | < 1 | 1 to 16 (≈ 1.58 to 25.3 µM)
13 | CN[C@@H]1[C@@H](O)[C@@H](O[C@@H]2[C@@H](O)[C@H](O[C@H]3OC(CNCC(O)CO)=CC[C@H]3N)[C@@H](N)C[C@H]2NC(=O)[C@@H](O)CCN)OC[C@]1(C)O (stereo partly drawn) [Example 19, 6′-(2-Hydroxy-propanol)-1-(4-amino-2(S)-hydroxy-butyryl)-sisomicin] | < 1 | 1 to 16 (≈ 1.61 to 25.7 µM) | – | – | –
14 | CN[C@@H]1[C@@H](O)[C@@H](O[C@@H]2[C@@H](O)[C@H](O[C@H]3OC(CNC(=O)C(O)CN)=CC[C@H]3N)[C@@H](N)C[C@H]2NC(=O)[C@@H](O)CN)OC[C@]1(C)O (stereo partly drawn) [Example 20, 6′-(3-Amino-2-hydroxy-propionyl)-1-(3-amino-2(S)-hydroxy-propionyl)-sisomicin] | > 16 | > 16 | – | – | –
15 | CN[C@@H]1[C@@H](O)[C@@H](O[C@@H]2[C@@H](O)[C@H](O[C@H]3OC(CNCC(O)C(N)=O)=CC[C@H]3N)[C@@H](N)C[C@H]2NC(=O)[C@@H](O)CN)OC[C@]1(C)O (stereo partly drawn) [Example 21, 6′-(2-Hydroxy-3-propionamide)-1-(3-amino-2(S)-hydroxy-propionyl)-sisomicin] | 1 to 16 (≈ 1.61 to 25.7 µM) | 1 to 16 (≈ 1.61 to 25.7 µM) | – | – | –
16 | CN[C@@H]1[C@@H](O)[C@@H](O[C@@H]2[C@@H](O)[C@H](O[C@H]3OC(CNCC(O)CN)=CC[C@H]3N)[C@@H](N)C[C@H]2NC(=O)[C@@H](O)CN)OC[C@]1(C)O (stereo partly drawn) [Example 22, 6′-(3-Amino-2-hydroxy-propyl)-1-(3-amino-2(S)-hydroxy-propionyl)-sisomicin] | – | – | 1 to 16 (≈ 1.65 to 26.3 µM) | 1 to 16 (≈ 1.65 to 26.3 µM) | 1 to 16 (≈ 1.65 to 26.3 µM)
17 | CN[C@@H]1[C@@H](O)[C@@H](O[C@@H]2[C@@H](O)[C@H](O[C@H]3OC(CNCC(O)CO)=CC[C@H]3N)[C@@H](N)C[C@H]2NC(=O)CO)OC[C@]1(C)O (stereo partly drawn) [Example 23, 6′-(2-Hydroxy-propanol)-1-(2-hydroxy-acetyl)-sisomicin] | > 16 | > 16 | – | – | –
18 | CN[C@@H]1[C@@H](O)[C@@H](O[C@@H]2[C@@H](O)[C@H](O[C@H]3OC(CNCCCN)=CC[C@H]3N)[C@@H](N)C[C@H]2NC(=O)CO)OC[C@]1(C)O [Example 24, 6′-(3-Amino-propyl)-1-(2-hydroxy-acetyl)-sisomicin] | 1 to 16 (≈ 1.78 to 28.4 µM) | 1 to 16 (≈ 1.78 to 28.4 µM) | – | – | –
19 | CN[C@@H]1[C@@H](O)[C@@H](O[C@@H]2[C@@H](O)[C@H](O[C@H]3OC(CNCCO)=CC[C@H]3N)[C@@H](N)C[C@H]2NC(=O)CO)OC[C@]1(C)O [Example 25, 6′-(2-Hydroxy-ethyl)-1-(2-hydroxy-acetyl)-sisomicin] | 1 to 16 (≈ 1.82 to 29.1 µM) | 1 to 16 (≈ 1.82 to 29.1 µM) | – | – | –
20 | CN[C@@H]1[C@@H](O)[C@@H](O[C@@H]2[C@@H](O)[C@H](O[C@H]3OC(CNCCCN)=CC[C@H]3N)[C@@H](N)C[C@H]2NS(=O)(=O)CCN)OC[C@]1(C)O [Example 26, 6′-(3-Amino-propyl)-1-(2-amino-ethylsulfonamide)-sisomicin] | 1 to 16 (≈ 1.63 to 26.2 µM) | 1 to 16 (≈ 1.63 to 26.2 µM) | – | – | –
21 | CN[C@@H]1[C@@H](O)[C@@H](O[C@@H]2[C@@H](O)[C@H](O[C@H]3OC(CNCC(O)CO)=CC[C@H]3N)[C@@H](N)C[C@H]2NS(=O)(=O)CCN)OC[C@]1(C)O (stereo partly drawn) [Example 27, 6′-(2-Hydroxy-propanol)-1-(2-amino-ethylsulfonamide)-sisomicin] | 1 to 16 (≈ 1.59 to 25.4 µM) | > 16 | – | – | –
22 | CN[C@@H]1[C@@H](O)[C@@H](O[C@@H]2[C@@H](O)[C@H](O[C@H]3OC(CNC[C@H](O)CO)=CC[C@H]3N)[C@@H](N)C[C@H]2NC(=O)[C@@H](O)CCN)OC[C@]1(C)O [Example 28, 6′-(2(S)-Hydroxy-propanol)-1-(4-amino-2(S)-hydroxy-butyryl)-sisomicin] | 1 to 16 (≈ 1.61 to 25.7 µM) | 1 to 16 (≈ 1.61 to 25.7 µM) | – | – | –
23 | CN[C@@H]1[C@@H](O)[C@@H](O[C@@H]2[C@@H](O)[C@H](O[C@H]3OC(CNCCO)=CC[C@H]3N)[C@@H](N)C[C@H]2NS(=O)(=O)CCN)OC[C@]1(C)O [Example 29, 6′-(2-Hydroxy-ethyl)-1-(2-amino-ethylsulfonamide)-sisomicin] | 1 to 16 (≈ 1.67 to 26.7 µM) | > 16 | – | – | –
24 | CN[C@@H]1[C@@H](O)[C@@H](O[C@@H]2[C@@H](O)[C@H](O[C@H]3OC(CNCC(N)CO)=CC[C@H]3N)[C@@H](N)C[C@H]2NC(=O)[C@@H](O)CCN)OC[C@]1(C)O (stereo partly drawn) [Example 30, 6′-(2-Amino-propanol)-1-(4-amino-2(S)-hydroxy-butyryl)-sisomicin] | < 1 | 1 to 16 (≈ 1.61 to 25.7 µM) | – | – | –
25 | CN[C@@H]1[C@@H](O)[C@@H](O[C@@H]2[C@@H](O)[C@H](O[C@H]3OC(CNCC4(O)CCNCC4)=CC[C@H]3N)[C@@H](N)C[C@H]2NC(=O)[C@@H](O)CCN)OC[C@]1(C)O [Example 31] | 1 to 16 (≈ 1.51 to 24.2 µM) | 1 to 16 (≈ 1.51 to 24.2 µM) | – | – | –
26 | CN[C@@H]1[C@@H](O)[C@@H](O[C@@H]2[C@@H](O)[C@H](O[C@H]3OC(CNCC(O)CCCN)=CC[C@H]3N)[C@@H](N)C[C@H]2NC(=O)[C@@H](O)CCN)OC[C@]1(C)O (stereo partly drawn) [Example 32, 6′-(2-Hydroxy-5-amino-pentyl)-1-(4-amino-2(S)-hydroxy-butyryl)-sisomicin] | < 1 | 1 to 16 (≈ 1.54 to 24.6 µM) | – | – | –
